Measured values published in patent US20250243218A1, “NOVEL CARBAMATE COMPOUND AND USE THEREOF” (CHENGDU SHIBEIKANG BIOMEDICAL TECHNOLOGY CO., LTD., priority 2022, published 2025).

Key:
[1] = Influencing factor test (high temperature, high humidity, light); format: physicochemical
Procedure: Test Methods: The samples of the compound 2 and comparative example 2 (Vicagrel) were weighed and placed in weighing bottles, respectively, and the weighing bottles were placed under the conditions of high temperature (60° C.), high humidity (RH 80%), and light (5000 Lux), respectively.

hERG potassium channel = target: T1, hERG potassium channel (Homo sapiens, UniProt Q12809); assay: cell-based; settings: manual patch-clamp, stably overexpressed hERG channel; read-out: IC50 (μM), inhibition of cardiac hERG potassium channel
T1 construct: expressed in transfected cells
Text: Test Example 2: Effect of Compounds on Current in Stably Overexpressed hERG Channel

Solubility study = format: physicochemical; settings: 25° C. to 30° C.
Procedure: Samples of the example compound 2 and comparative example 2 (Vicagrel) were accurately weighed. Under the condition of 25° C. to 30° C., 1 ml of physiological saline and 1 ml of a buffer (pH 1.2) were taken, and added with 10 mg of each compound, respectively. The compound 2 of the present disclosure had excellent solubility, which can satisfy the demand for the formulation into an injection with an effective concentration in clinical, while the solubility of the comparative example 2 was extremely low and it cannot satisfy the demand for injection, and the addition of additional solubilizer may pose potential safety risks.

rabbit blood cells = assay: In vitro hemolysis test; format: cell-based; settings: compound 2 injection, 2% red blood cell suspension
Procedure: One Adult Big White-Eared Rabbit (Male)
(1) After the rabbit was anesthetized by injection of sodium pentobarbital via the marginal ear vein at about 30 mg/kg, about 20 ml of blood was collected from the heart into an appropriate container.
(2) A stirrer (or glass bead) was placed in the container, the blood was stirred at a slow speed for a few minutes to remove the fibrinogen in the blood so as to obtain defibrinated blood.
(3) About 10 times the amount of physiological saline was added, mixed evenly by shaking and aliquoted into centrifuge tubes. The tubes were centrifuged at 1000 to 2000 rpm for 15 min (the rotational speed and time for centrifugation could be adjusted according to the post-centrifugation situation due to the difference of centrifuge tubes in size), and then the supernatants were removed.
(5) The obtained red blood cells were prepared into a 2% suspension with physiological saline.

[2] = system: ear marginal vein of the rabbit; assay: Vascular irritation assay; format: in vivo
Procedure: Four Japanese Big-Ear White Rabbit (about 2 kg), 2♀/2♂ (2 Female/2 Male)
The intra-individual left/right comparison method was used. The compound 2 low dose injection and compound 2 high dose injection groups were set, with 2 rabbits in each group, half male and half female. The compound 2 injections were administered by injection into the ear marginal veins of right ears of the rabbits in the compound 2 low and high dose groups, with administration doses of 2.5 mg/kg and 7.5 mg/kg, respectively, and with the same administration volume of 5 ml/kg; and the corresponding administration concentrations were 0.5 mg/ml and 1.5 mg/ml, respectively. The same administration volume of sodium chloride injection as the negative control was administered by injection into the ear marginal veins of left ears of the rabbits in the compound 2 low and high dose groups. The administration was carried out by intravenous infusion for 30 min. […] The administration was performed once daily for a total of 7 consecutive days.
At 72 h and at the end of a 14-day recovery period after the final administration, half of the animals in each group […] were sacrificed, respectively. Marginal ear tissue samples were cut from the injection site and the proximal end of the marginal ear vein respectively and collected. The injection sites were observed by naked eyes for the response conditions to irritation. The obtained tissues were fixed with 10% neutral formalin and conventionally sectioned for histopathological examination.

[3] = system: ADP-induced platelet aggregation in rats; assay: Antiplatelet aggregation effect: ADP-induced platelet aggregation in PRP of rats after iv administration; format: in vivo; settings: single iv at the same molar dose, blood 3 h after administration, ADP final 20 μM
Text: 1. Test objective: Evaluation and comparison of the antiplatelet aggregation treatment effect of each compound after administration at the same molar amount
70 rats were randomly and evenly grouped into 7 groups, i.e., solvent control group, comparative example 1 (2-Oxo-clopidogrel) group, comparative example 2 (Vicagrel) group, compound 1 group, compound 2 group, compound 7 group and compound 8 group.
Rats were anesthetized by intraperitoneal injection of 1.5% sodium pentobarbital.
The anesthetized animals were transferred to an operating platform.
The rats were injected with anesthetic, and fixed on the operating platform in a supine position after the whole body of the rat became soft. After routine disinfection, the abdomen of the rat was incised along the abdominal midline using surgical scissors to open the abdominal cavity. The adipose tissue around the blood vessels was gently separated with a small forceps, and the excess adipose tissue covering the blood vessels was then wiped and removed with the cotton ball to make the blood vessels clearly visible (the abdominal aorta is located anterior to the vertebral column, and the abdominal vein appears thicker and darker in color than the abdominal aorta). The blood vessel was first fixed to prevent it from moving as much as possible. The left thumb and index finger fixed the adipose tissue and other organs on both sides of the blood vessel, while the ring finger pressed on the blood vessel at the upper end of the needle insertion point to lower the blood pressure, which can prevent blood spurting. The puncture needle was held with the right hand, with the bevel of the needle tip facing downward. The needle was inserted at an angle of about 30 degrees and advanced towards the heart to a suitable depth of about 5 mm. Once the blood had started to enter the needle via its tip, the other end of the blood collection needle was inserted into the vacuum tube. After the insertion of needle, the needle tip could be clamped with a hemostatic clip to prevent it from puncturing the blood vessel if the rat struggled due to insufficient anesthesia.
Three hours after the administration, the rats were anesthetized with sodium pentobarbital. Then blood was collected from the abdominal aorta, added with 3.8% sodium citrate (1:9) as an anticoagulant, mixed evenly and centrifuged at 200 g for 10 min. The supernatant was harvested to obtain the platelet-rich plasma (PRP), and the residual plasma was then centrifuged at 1600 g for 15 min to obtain the resulting supernatant as platelet-poor plasma (PPP).
Platelet aggregation rate was measured using a platelet aggregometer (model: Agg RAM, Helena, USA). The PPPs corresponding to the PRPs to be tested in each channel were first used to correct the light transmission, and the PPPs were removed after the correction. A cuvette added with 225 μl of PRP to be tested was then placed in each channel, and added with a stirrer, then ADP (with a final concentration of 20 μM). The platelet aggregometer immediately began to measure the platelet aggregation rate.

[4] = Pharmacokinetic study in SD rats, 2-Oxo-clopidogrel in plasma by LC/MS/MS; format: in vivo; settings: 2-Oxo-clopidogrel in plasma, SD rats, single dose at same molar amount (Table 3: iv.; text: gavage), n = 6, mean ± SD
Text: After being administered via single gavage at the same molar amount, the pharmacokinetic characteristics of each compound were investigated, and the main pharmacokinetic parameters were compared.
Each test compound was accurately weighed separately into a clean drug container, dissolved with appropriate amount of Solutol, shaken by vortex, added with purified water, ultrasonicated, and shaken by vortex until the compound was completely dissolved. All the formulations were freshly prepared on the day of administration.
Thirty healthy adult SD rats were administered via gavage.
Grouping and Fasting: SD rats were randomly grouped, with 6 rats per group, and administered with the corresponding compounds via gavage according to Table 3.
Sample Collection and Processing: 0.2 ml of blood was collected at different time points of before (0 h) and 5 min, 15 min, 30 min, 1 h, 2 h, 4 h, 8 h, and 24 h after the administration. After the anticoagulation with EDTA-K2 was completed, the blood was centrifuged at 4° C. for 5 min, and then the plasma was separated and stored at −80° C. for later measurement.
Measurement: The blood drug concentration of 2-Oxo-clopidogrel in all PK plasma samples was measured by LC/MS/MS method, and the pharmacokinetic parameters of individual compounds were calculated by using software WinNonlin 7.2.

T1 sequence (Q12809 whole entry): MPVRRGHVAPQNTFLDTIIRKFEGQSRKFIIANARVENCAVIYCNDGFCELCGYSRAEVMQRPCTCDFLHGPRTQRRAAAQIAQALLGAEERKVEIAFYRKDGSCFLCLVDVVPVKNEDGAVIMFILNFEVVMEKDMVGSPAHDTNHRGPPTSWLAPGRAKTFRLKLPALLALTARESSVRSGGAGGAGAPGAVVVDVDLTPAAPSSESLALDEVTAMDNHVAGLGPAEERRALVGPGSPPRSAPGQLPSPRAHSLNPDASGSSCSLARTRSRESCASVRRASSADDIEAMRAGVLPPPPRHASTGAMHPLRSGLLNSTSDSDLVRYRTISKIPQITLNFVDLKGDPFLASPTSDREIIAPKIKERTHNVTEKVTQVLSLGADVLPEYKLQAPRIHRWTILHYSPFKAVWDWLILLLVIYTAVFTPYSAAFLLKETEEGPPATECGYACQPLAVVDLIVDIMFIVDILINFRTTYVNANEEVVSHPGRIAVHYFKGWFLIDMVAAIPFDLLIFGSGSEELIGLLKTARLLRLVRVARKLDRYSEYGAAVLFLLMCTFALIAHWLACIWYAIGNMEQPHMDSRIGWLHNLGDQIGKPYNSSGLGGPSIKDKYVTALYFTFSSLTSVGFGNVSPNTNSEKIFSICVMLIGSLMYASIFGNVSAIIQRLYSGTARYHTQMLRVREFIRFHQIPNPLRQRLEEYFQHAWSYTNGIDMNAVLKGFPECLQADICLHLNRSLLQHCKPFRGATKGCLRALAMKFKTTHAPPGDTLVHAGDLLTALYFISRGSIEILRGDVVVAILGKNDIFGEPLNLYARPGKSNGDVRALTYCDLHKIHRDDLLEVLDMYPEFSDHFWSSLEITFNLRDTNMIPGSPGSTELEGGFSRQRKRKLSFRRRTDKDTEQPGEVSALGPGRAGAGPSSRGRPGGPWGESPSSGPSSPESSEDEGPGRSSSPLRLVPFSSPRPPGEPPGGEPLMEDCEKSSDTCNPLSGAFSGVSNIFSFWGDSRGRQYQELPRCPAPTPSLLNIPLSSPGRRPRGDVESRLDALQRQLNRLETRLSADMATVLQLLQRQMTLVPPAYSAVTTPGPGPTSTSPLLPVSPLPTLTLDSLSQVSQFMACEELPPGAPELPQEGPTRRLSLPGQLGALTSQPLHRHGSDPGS

For `COC(=O)[C@H](c1ccccc1Cl)N1CCc2sc(OC(=O)N3CCN(C)CC3)cc2C1.O=C(O)/C=C/C(=O)O` [Compound 2, (S)-5-(1-(2-chlorophenyl)-2-methoxy-2-oxyethyl)-4,5,6,7-tetrahydrothieno[3,2-c]pyridin-2-yl 4-methylpiperazine-1-carboxylate fumarate], which “change in content, appearance and shape” value ([1]; 10 days under each of high temperature, high humidity and light) is on record?
The value was “little change in content and no obvious change in appearance and shape”.

What about the “content, Day 0” value ([1]; Day 0) of the same compound?
The value was 98.39%.

And the “content, High humidity (Day 10)” value ([1]; high humidity (RH 80%), 10 days)?
Its value is 97.83%.

What about the “content, High temperature (Day 10)” value ([1]; high temperature (60° C.), 10 days) of the same compound?
Its value is 97.84%.

What about the “content, Light (Day 10)” value ([1]; light (5000 Lux), 10 days) of the same compound?
Its value is 96.09%.

And the IC50 (hERG potassium channel)?
The IC50 was 18.6 µM.

What about the “Solubility, pH 1.2 buffer” value (Solubility study; 10 mg compound added to 1 ml buffer (pH 1.2)) of the same compound?
The value was over 10 mg.

What about the “Solubility, Physiological saline(1 ml)” value (Solubility study; 10 mg compound added to 1 ml physiological saline) of the same compound?
Its value is over 10 mg.

What about the “hemolysis of rabbit blood cells” value (rabbit blood cells; high concentration 2.5 mg/ml) of the same compound?
The value was “neither the compound 2 injection at low concentration (0.5 mg/ml) nor the compound 2 injection at high concentration (2.5 mg/ml) caused hemolysis”.

What about the “hemolysis of rabbit blood cells” value (rabbit blood cells; low concentration 0.5 mg/ml) of the same compound?
Its value is “neither the compound 2 injection at low concentration (0.5 mg/ml) nor the compound 2 injection at high concentration (2.5 mg/ml) caused hemolysis”.

And the “vascular irritation effect on the ear marginal vein of the rabbit (overall determination)” value ([2]; high concentration 1.5 mg/ml)?
The value was “no vascular irritation effect”.

And the “observation of ear marginal vein on the administered side at day 2 of the recovery period” value ([2]; high concentration 1.5 mg/ml, naked eyes)?
The value was “congestion of the ear marginal vein on the administered side was observed by naked eyes”.

What about the “vascular irritation effect on the ear marginal vein of the rabbit (overall)” value ([2]; low concentration 0.5 mg/ml, observed by naked eyes) of the same compound?
Its value is “no vascular irritation effect”.

What about the “Platelet aggregation rate (%)” value ([3]; solvent control 76.06 ± 3.29) of the same compound?
The value was 21.18 ± 8.51 %.

And the “Platelet aggregation rate (%)” value ([3]; solvent control 76.06 ± 3.29, listed as compound 2)?
Its value is 21.18±8.51%.

What about the “AUC0-last (h*ng/ml)” value [4] of the same compound?
Its value is 110.15 ± 32.62** h*ng/ml.

What about the “Cmax” value [4] of the same compound?
Its value is 76.82 ± 21.69 ng/mL.

And the “T1/2” value [4]?
The value was 1.98 ± 0.25 h.

And the “Tmax” value [4]?
Its value is 0.45 ± 0.13 h.
